US20170008888A1 (KYORIN PHARMACEUTICAL CO., LTD., priority 2014, published 2017)
Like-named read-outs stand apart in the source and are kept apart here.

Assays:
Assay type in all cases: binding
AurA = target: T1, AurA (Homo sapiens, UniProt O14965); test: Probe-based (AX9989) kinase profiling in Jurkat lysate: AurA; conditions: for inhibition at 0.1 µM: screening concentration 0.1 μM
T1 construct: screened for activity against several kinases in Jurkat cells; endogenous in cells; host or cells: Jurkat cell lysate
T1 sequence (O14965 1-403): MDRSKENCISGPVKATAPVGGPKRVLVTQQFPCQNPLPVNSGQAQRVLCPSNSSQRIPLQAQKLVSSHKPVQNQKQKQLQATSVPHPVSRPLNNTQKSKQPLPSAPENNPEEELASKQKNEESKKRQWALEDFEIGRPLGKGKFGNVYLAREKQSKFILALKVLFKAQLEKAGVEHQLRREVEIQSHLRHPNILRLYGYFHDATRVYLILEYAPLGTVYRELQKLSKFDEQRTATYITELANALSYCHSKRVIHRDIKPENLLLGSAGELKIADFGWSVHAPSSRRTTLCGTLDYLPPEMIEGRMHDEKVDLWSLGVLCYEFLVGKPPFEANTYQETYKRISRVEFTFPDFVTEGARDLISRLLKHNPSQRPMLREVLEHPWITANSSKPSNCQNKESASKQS
Summary of the method: (§1)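 Gel-filtered Jurkat lysate (HEPES pH 7.5, 20 mM MnCl2, 5 mg/ml) was pre-incubated 15 min with compound at room temperature, then labelled with 5 μM acyl-phosphate ATP probe AX9989. Tryptic probe-labelled active-site peptides were streptavidin-captured and quantified by LC/MS. Percent inhibition reflected the decrease in labelled-peptide intensity versus no compound.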

AurB or AurC = test: Probe-based (AX9989) kinase profiling in Jurkat lysate: AurB or AurC; conditions: for AurB or AurC Inhibition % at indicated screening concentration: screening concentration 1 μM
Summary of the method: as §1

TAO2 = target: T2, TAO2 (Homo sapiens, UniProt Q9UL54); test: Probe-based (AX9989) kinase profiling in Jurkat lysate: TAO2; conditions: for inhibition at 0.1 µM: screening concentration 0.1 μM
T2 construct: screened for activity against several kinases in Jurkat cells; endogenous in cells; host or cells: Jurkat cell lysate
T2 sequence (Q9UL54 1-1235): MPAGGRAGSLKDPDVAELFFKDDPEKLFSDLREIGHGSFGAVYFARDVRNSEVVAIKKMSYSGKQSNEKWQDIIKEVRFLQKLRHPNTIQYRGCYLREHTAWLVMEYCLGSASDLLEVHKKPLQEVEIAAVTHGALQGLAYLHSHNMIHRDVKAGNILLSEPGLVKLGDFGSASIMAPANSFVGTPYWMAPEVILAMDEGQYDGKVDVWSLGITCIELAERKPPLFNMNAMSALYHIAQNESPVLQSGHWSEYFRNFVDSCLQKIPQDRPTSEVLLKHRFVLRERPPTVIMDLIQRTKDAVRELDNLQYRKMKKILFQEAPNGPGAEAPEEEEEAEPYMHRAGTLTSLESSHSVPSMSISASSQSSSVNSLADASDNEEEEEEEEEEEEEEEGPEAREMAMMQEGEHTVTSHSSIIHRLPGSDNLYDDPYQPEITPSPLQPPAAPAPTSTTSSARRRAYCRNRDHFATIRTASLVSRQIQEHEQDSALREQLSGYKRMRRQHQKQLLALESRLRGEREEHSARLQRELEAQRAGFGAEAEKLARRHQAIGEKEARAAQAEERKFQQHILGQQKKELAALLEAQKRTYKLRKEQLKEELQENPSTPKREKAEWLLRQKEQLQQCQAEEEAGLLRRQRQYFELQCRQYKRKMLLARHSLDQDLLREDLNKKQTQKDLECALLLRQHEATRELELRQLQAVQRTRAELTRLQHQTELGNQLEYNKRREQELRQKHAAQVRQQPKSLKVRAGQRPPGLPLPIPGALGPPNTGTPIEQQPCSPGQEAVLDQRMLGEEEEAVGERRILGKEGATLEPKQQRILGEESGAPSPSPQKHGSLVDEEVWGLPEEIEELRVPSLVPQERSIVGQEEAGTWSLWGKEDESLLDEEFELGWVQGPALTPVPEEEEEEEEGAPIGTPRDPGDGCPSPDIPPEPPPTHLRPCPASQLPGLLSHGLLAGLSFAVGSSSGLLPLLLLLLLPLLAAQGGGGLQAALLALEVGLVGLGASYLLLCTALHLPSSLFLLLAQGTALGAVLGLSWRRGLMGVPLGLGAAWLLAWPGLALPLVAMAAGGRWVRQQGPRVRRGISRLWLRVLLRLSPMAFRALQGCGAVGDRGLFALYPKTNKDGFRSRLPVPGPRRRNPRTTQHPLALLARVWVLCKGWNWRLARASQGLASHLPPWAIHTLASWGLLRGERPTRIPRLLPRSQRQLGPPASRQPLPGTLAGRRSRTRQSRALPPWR
Summary of the method: as §1

[1] = screening concentration 1.0 μM, read-out: Kinase inhibition % at indicated screening concentration: AurA
[2] = screening concentration 1.0 μM, read-out: Kinase inhibition % at indicated screening concentration: TAO2
[3] = read-out: Kinase inhibition % at indicated screening concentration: AurA
[4] = read-out: Kinase inhibition % at indicated screening concentration: TAO2
[5] = screening concentration 1 μM, read-out: AurA Inhibition % at indicated screening concentration
[6] = screening concentration 1 μM, read-out: TAO2 Inhibition % at indicated screening concentration

| inhibition at 1 µM (AurA; [1]) [%] | Kinase inhibition % at indicated screening concentration: AurB or AurC (AurB or AurC; screening concentration 1.0 μM) | inhibition at 1 µM (TAO2; [2]) [%] | SMILES | other results |
| --- | --- | --- | --- | --- |
| ≤ 35 | E (E is ≦35%) | ≤ 35 | CCOc1cc(C(=O)NCCn2ccnc2)ccc1Nc1cc2c(cn1)N(C)C(=O)c1ccccc1N2C [Compound 84] | – |
| – | – | – | CCOc1cc(C(=O)N(C)CCN(C)C)ccc1Nc1cc2c(cn1)N(C)C(=O)c1ccccc1N2C [Compound 88] | inhibition at 0.1 µM (AurA; [3]): ≤ 35%; Kinase inhibition % at indicated screening concentration: AurB or AurC (AurB or AurC; screening concentration 0.1 μM): E (E is ≦35%); inhibition at 0.1 µM (TAO2; [4]): ≤ 35% |
| – | – | – | CCOc1cc(C(=O)N2CCC(N3CCCC3)CC2)ccc1Nc1cc2c(cn1)N(C)C(=O)c1occc1N2C [Compound 91, 6-((2-Ethoxy-4-(4-(pyrrolidin-1-yl)piperidine-1-carbonyl)phenyl)amino)-4,9-dimethyl-4H-furo[3,2-e]pyrido[3,4-b][1,4]diazepin-10(9H)-one] | inhibition at 0.1 µM (AurA; [3]): ≤ 35%; Kinase inhibition % at indicated screening concentration: AurB or AurC (AurB or AurC; screening concentration 0.1 μM): E (E is ≦35%); inhibition at 0.1 µM (TAO2; [4]): ≤ 35% |
| ≤ 35 | E (E is ≦35%) | ≤ 35 | CCOc1cc(C(=O)N2CCCC(O)C2)ccc1Nc1cc2c(cn1)N(C)C(=O)c1ccccc1N2C (stereo not drawn) [Compound 93] | – |
| – | – | – | CCOc1cc(C(=O)N2CCN(C(C)(C)C)CC2)ccc1Nc1cc2c(cn1)N(C)C(=O)c1ccccc1N2C [Compound 94] | inhibition at 0.1 µM (AurA; [3]): ≤ 35%; Kinase inhibition % at indicated screening concentration: AurB or AurC (AurB or AurC; screening concentration 0.1 μM): E (E is ≦35%); inhibition at 0.1 µM (TAO2; [4]): ≤ 35% |
| – | – | – | CCOc1cc(C(=O)N2CCC[C@H](O)C2)ccc1Nc1cc2c(cn1)N(C)C(=O)c1ccccc1N2C [Compound 96] | inhibition at 0.1 µM (AurA; [3]): ≤ 35%; Kinase inhibition % at indicated screening concentration: AurB or AurC (AurB or AurC; screening concentration 0.1 μM): E (E is ≦35%); inhibition at 0.1 µM (TAO2; [4]): ≤ 35% |
| ≤ 35 | E (E is ≦35%) | ≤ 35 | CCOc1cc(C(=O)N[C@H]2CCCOC2)ccc1Nc1cc2c(cn1)N(C)C(=O)c1ccccc1N2C [Compound 100] | – |
| ≤ 35 | E (E is ≦35%) | ≤ 35 | CCOc1cc(C(=O)NCCOCCO)ccc1Nc1cc2c(cn1)N(C)C(=O)c1ccccc1N2C [Compound 101] | – |
| ≤ 35 | E (E is ≦35%) | ≤ 35 | CN1C(=O)c2ccccc2N(C)c2cc(NC3CCOCC3)ncc21 [Compound 102] | – |
| – | – | – | CCOc1cc(C(=O)NCCN(CC)CC)ccc1Nc1cc2c(cn1)N(C)C(=O)c1ccccc1N2C [Compound 103] | inhibition at 0.1 µM (AurA; [3]): ≤ 35%; Kinase inhibition % at indicated screening concentration: AurB or AurC (AurB or AurC; screening concentration 0.1 μM): E (E is ≦35%); inhibition at 0.1 µM (TAO2; [4]): ≤ 35% |
| ≤ 35 | E (E is ≦35%) | ≤ 35 | CCOc1cc(C(=O)NCCN2CCCC2)ccc1Nc1cc2c(cn1)N(C)C(=O)c1ccccc1N2C [Compound 105] | – |
| ≤ 35 | E (E is ≦35%) | 50 to 75 | Cc1cc(CN2CCCC2)ccc1Nc1cc2c(cn1)N(C)C(=O)c1ccccc1N2C [Compound 106, 5,11-dimethyl-3-(2-methyl-4-(pyrrolidin-1-ylmethyl)phenylamino)-5H-benzo[e]pyrido[3,4-b][1,4]diazepin-10(11H)-one] | – |
| ≤ 35 | E (E is ≦35%) | ≤ 35 | CCOc1cc(C(=O)NCCc2ccncc2)ccc1Nc1cc2c(cn1)N(C)C(=O)c1ccccc1N2C [Compound 107] | – |
| ≤ 35 | E (E is ≦35%) | ≤ 35 | CCOc1cc(C(=O)N2CCN(CC)CC2)ccc1Nc1cc2c(cn1)N(C)C(=O)c1ccccc1N2C [Compound 108] | – |
| – | – | – | CN1C(=O)c2ccccc2N(C)c2cc(Nc3ccc(C(=O)N4CC[C@@H](N(C)C)C4)cc3F)ncc21 [Compound 110] | inhibition at 10 µM (AurA; screening concentration 10.0 μM, read-out: Kinase inhibition % at indicated screening concentration: AurA): 35 to 50%; Kinase inhibition % at indicated screening concentration: AurB or AurC (AurB or AurC; screening concentration 10.0 μM): C (C is >50% to ≦75%); inhibition at 10 µM (TAO2; screening concentration 10.0 μM, read-out: Kinase inhibition % at indicated screening concentration: TAO2): 50 to 75% |
| ≤ 35 | E (E is ≦35%) | ≤ 35 | CCOc1cc(C(=O)N2CCOCC2)ccc1Nc1cc2c(cn1)N(C)C(=O)c1ccccc1N2C [Compound 111] | – |
| – | – | – | CCOc1cc(C(=O)N2CC(N3CCCCC3)C2)ccc1Nc1cc2c(cn1)N(C)C(=O)c1ccccc1N2C [Compound 114] | inhibition at 0.1 µM (AurA; [3]): ≤ 35%; Kinase inhibition % at indicated screening concentration: AurB or AurC (AurB or AurC; screening concentration 0.1 μM): E (E is ≦35%); inhibition at 0.1 µM (TAO2; [4]): ≤ 35% |
| ≤ 35 | E (E is ≦35%) | ≤ 35 | CCOc1cc(C(=O)N2CC[C@@H](N(C)C)C2)ccc1Nc1cc2c(cn1)N(C)C(=O)c1ccccc1N2C [Compound 115] | – |
| ≤ 35 | E (E is ≦35%) | ≤ 35 | CCOc1cc(C(=O)N2CCC(CN3CCOCC3)CC2)ccc1Nc1cc2c(cn1)N(C)C(=O)c1ccccc1N2C [Compound 120] | – |
| ≤ 35 | E (E is ≦35%) | ≤ 35 | CCOc1cc(C(=O)N(CC)CCN(CC)CC)ccc1Nc1cc2c(cn1)N(C)C(=O)c1ccccc1N2C [Compound 122] | – |
| – | – | – | CCOc1cc(C(=O)N2CCC(NC(C)C)C2)ccc1Nc1cc2c(cn1)N(C)C(=O)c1ccccc1N2C (stereo not drawn) [Compound T4] | inhibition at 1 µM (AurA; [5]): ≤ 35%; AurB or AurC Inhibition % at indicated screening concentration (AurB or AurC): E (E is ≦35%); inhibition at 1 µM (TAO2; [6]): ≤ 35% |
| – | – | – | CCOc1cc(C(=O)N2C[C@H]3CCN[C@H]3C2)ccc1Nc1cc2c(cn1)N(C)C(=O)c1ccccc1N2C [Compound T5] | inhibition at 1 µM (AurA; [5]): ≤ 35%; AurB or AurC Inhibition % at indicated screening concentration (AurB or AurC): E (E is ≦35%); inhibition at 1 µM (TAO2; [6]): ≤ 35% |
| – | – | – | CCOc1cc(C(=O)N(C)[C@H]2CC[C@H](O)CC2)ccc1Nc1cc2c(cn1)N(C)C(=O)c1ccccc1N2C [Compound T64] | inhibition at 1 µM (AurA; [5]): ≤ 35%; AurB or AurC Inhibition % at indicated screening concentration (AurB or AurC): E (E is ≦35%); inhibition at 1 µM (TAO2; [6]): ≤ 35% |
| – | – | – | CN1CCC(N2CCN(C(=O)c3ccc(Nc4cc5c(cn4)N(C)C(=O)c4ccccc4N5C)c(F)c3)CC2)CC1 [Compound T70] | inhibition at 1 µM (AurA; [5]): ≤ 35%; AurB or AurC Inhibition % at indicated screening concentration (AurB or AurC): E (E is ≦35%); inhibition at 1 µM (TAO2; [6]): ≤ 35% |
| – | – | – | CN1CCC(N2CCN(C(=O)c3ccc(Nc4cc5c(cn4)N(C)C(=O)c4ccccc4N5C)c(OC(F)F)c3)CC2)CC1 [Compound T76] | inhibition at 1 µM (AurA; [5]): ≤ 35%; AurB or AurC Inhibition % at indicated screening concentration (AurB or AurC): E (E is ≦35%); inhibition at 1 µM (TAO2; [6]): ≤ 35% |
